According to US4432993A, “Method of treating obesity hyperglycemia, inflammation and platelet aggregation” (priority 1980, dated 1984):

How the values were obtained:
[1] = test system: Blood platelet response to collagen; experiment: Platelet aggregation inhibition activity (collagen-induced fall in blood platelet concentration); format: in vivo, Male CFLP mice; settings: 2 h after p.o. dose; collagen 400 μg/kg i.v.; Aspirin 600 μmol (108 mg)/kg, p < 0.05; Example 3 5 μmol (1.92 mg)/kg, p = 0.01
Protocol: Male CFLP mice (ca 20 g, n=8) were dosed orally with compound or vehicle (controls) after an overnight fast. Two hours later each mouse received an intravenous dose of collagen (400 μg/kg, pH 6-6.6). Exactly 30 sec. after injection of collagen, each mouse was placed in a chamber of CO2 until respiration ceased. […] Each concentration was expressed as a percent of that obtained in a tail blood sample taken immediately before injection of collagen.

genetically obese mice = experiment: Anti-obesity activity: carcass lipid in genetically obese mice; format: in vivo
Protocol: The compounds were administered by oral gavage in water or carboxymethyl-cellulose suspension to genetically obese mice daily for 28 days. At the end of the time the carcass composition was determined.

[2] = test system: inflammation induced in the rat ear by croton oil; experiment: Anti-inflammatory activity: croton oil induced inflammation of the rat ear; format: in vivo; settings: 2.0 mg/RAT EAR, 6 hours; activity = significant (5% level) reduction in ear weight vs non-drug treated control
Protocol: The method used is based on that described by G. Tonelli et al (Endocrinology, 77, 625-634, 1965). An inflammation is induced in the rat ear by the application of 50 μl of a 1% solution of croton oil in tetrahydrofuran, test compounds being dissolved in the irritant vehicle. After 6 hours the inflammation is assessed by killing the animals and weighing the ears. Topical anti-inflammatory activity of a compound is generally considered to be shown when a significant (5% level) reduction in ear weight is seen compared to non-drug treated control.

[3] = p.o. daily for 28 days, Ex. 5 mp 102-5: 4.8 mg/kg, control 21.10, Ex. 10: 8.6 mg/kg, control 23.13

Structure (SMILES)	% Inhibition of response to collagen [1]	g LIPID/MOUSE, TREATED (genetically obese mice; [3])	further results
COC(=O)COc1ccc(CC(C)NCC(O)c2cc3ccccc3o2)cc1 (stereo not drawn) [Example 3, N-[2-(4-Carbomethoxymethoxyphenyl)-1-methylethyl]-2-(2-benzofuranyl)-2-hydroxyethanamine]	29%	–	–
Cc1ccc(CCCNCC(O)c2cc3ccccc3o2)cc1 (stereo not drawn) [Example 10, N-[3-(4-Methylphenyl)propyl]-2-(2-benzofuranyl)-2-hydroxyethanamine]	–	19.72 g LIPID/MOUSE	–
Cc1ccc(C[C@@H](C)NC[C@@H](O)c2cc3ccccc3o2)cc1 (relative stereo) [Example 5 mp 102-5, N-[2-(4-methylphenyl)-1-methylethyl]-2-(2-benzofuranyl)-2-hydroxyethanamine]	–	16.16 g LIPID/MOUSE	ACTIVITY (topical anti-inflammatory) [2]: Active
Cc1ccc(CC(C)NCC(O)c2cc3ccccc3o2)cc1 (stereo not drawn) [Example 1, N-[2-(4-Methylphenyl)-1-methylethyl]-2-(2-benzofuranyl)-2-hydroxy ethanamine]	–	–	g LIPID/MOUSE, TREATED (genetically obese mice; 4.8 mg/kg p.o. daily, 15 days only, control 16.25): 13.36 g LIPID/MOUSE
CC(=O)Oc1ccccc1C(=O)O [Aspirin, reference compound]	29%	–	–
